Patent US4814340A, “1,4-diaryl alkane derivatives having insecticidal and acaricidal activity” (priority 1982, dated 1989)
Read-outs that look alike come from different tables or passages of the source.

Legend:
[1] = system: green rice leafhopper (female adults); experiment: Test 2 (Effect on Green Rice Leafhopper); assay type: in vivo; details: Nephotettix cincticeps
Experimental: (§1) Compounds (a) through (g) described below were tested as comparative compounds in the same manner as the compounds of the present invention. All the tests were doubly carried out. Namely, each result was expressed by an average value of two data.
Four or five seedlings of paddy rice with three leaves were bundled, and thereon the same dilution of the emulsifiable concentrate as used in Test 1 was sprayed in an amount of 3 ml. The bundle was dried and covered with a metal net cylinder, and 10 female adults of green rice leafhopper were set free in the cylinder. 48 hours after, the number of killed adults was counted.

[2] = system: German cockroach (female adults); experiment: Test 3 (Effect on German Cockroach); assay type: in vivo, Blatella germanica (German cockroach); details: Blattella germanica
Experimental: as §1
One ml of an acetone solution of a test compound of a specified concentration was poured in a high Petri dish having a diameter of 9 cm and a height of 9 cm. The Petri dish was allowed to stand, and thereby the acetone was evaporated. The upper part of the inner wall of the Petri dish was treated with butter to prevent the adults of German cockroach from escaping from the Petri dish. 10 female adults of German cockroach were set free in each Petri dish. 48 hours after, the number of killed adults was counted.

[3] = system: common cutworm (third-instar larvae); experiment: Test 1 (Effect on Common Cutworm); assay type: in vivo; details: Spodoptera litura
Experimental: as §1
The emulsifiable concentrate of the test compound, prepared according to the method described in Formulation Example 1, was diluted with water to a specified concentration. Sweet potato leaves were sufficiently immersed in the dilution. The sweet potato leaves were dried and placed in a plastic cup having a diameter of 10 cm, and 10 third-instar larvae of common cutworm were set free in each cup. 48 hours after, the numbers of killed and living larvae were counted and the mortality was calculated.

[4] = system: two-spotted spider mite (adults); experiment: Test 4 (Effect on Two-Spotted Spider Mite); assay type: in vivo; details: Tetranychus urticae
Experimental: as §1
A kidney bean leaf disc (20 mm in diameter) perforated with a cork borer was placed on water-impregnated absorbent cotton, and thereon 20 adults of two-spotted spider mite were set free, and the resulting set was allowed to stand around the clock. The same dilution of the emulsifiable concentrate of a test compound having a concentration of 200 ppm as used in Test 1 and Test 2, was applied by an applicator having a diameter of 20 cm and a height of 60 cm in an amount of 3 ml. 24 hours after, the number of killed adults was counted.

yearling carps = experiment: Test 5 (Fish Toxicity); assay type: in vivo, carp
Experimental: as §1
A water tank having a width of 60 cm, a length of 30 cm and a height of 40 cm was filled with water, and 10 yearling carps having a body length of about 5 cm were set free in the tank and adapted to the environment in the tank. An acetone solution of a test compound was applied into water so as to become a concentration of 1 or 0.1 ppm in water by adding said acetone solution at a rate of one part by volume per 100 parts by volume of water. 48 hours after, the number of killed and living carps was counted and the effect of a test compound on carps was examined.

[5] = 20 ppm, 48 hours, third-instar larvae, read-out: Mortality (%)
[6] = 100 ppm, 48 hours, third-instar larvae, read-out: Mortality (%)
[7] = 20 ppm, 48 hours, female adults, read-out: Mortality (%)
[8] = 100 ppm, 48 hours, female adults, read-out: Mortality (%)
[9] = 1 mg/m^2, 48 hours, female adults, read-out: Mortality (%)
[10] = 5 mg/m^2, 48 hours, female adults, read-out: Mortality (%)
[11] = 200 ppm, 24 hours, adults, read-out: Mortality (%)

SMILES | mortality at 20 ppm [3, 5] | mortality at 100 ppm [3, 6] | mortality at 20 ppm [1, 7] | mortality at 100 ppm [1, 8] | mortality at 1 mg/m2 [2, 9] | mortality at 5 mg/m2 [2, 10] | mortality at 200 ppm [4, 11] | other results
CCOP(=S)(OCC)Oc1cc(C)nc(C(C)C)n1 [(c), Diazinon, reference compound] | – | – | – | – | – | – | – | mortality at 20 ppm ([1]; 48 h): 10%; mortality at 100 ppm ([1]; 48 h): 80%; mortality at 1 mg/m2 ([2]; 48 h): 0%; mortality at 5 mg/m2 ([2]; 48 h): 80%
CCc1ccc(C(C)(C)CCCc2ccc(F)c(Oc3ccccc3)c2)cc1 [Compound 52] | 100% | 100% | 100% | 100% | 70% | 100% | 100% | –
CCOC(=O)c1ccc(C(C)(C)CCCc2cccc(Oc3ccccc3)c2)cc1 [Compound 64] | 40% | 90% | – | – | – | – | 70% | –
COP(=O)(OC)OC=C(Cl)Cl [(a), 0,0-dimethyl-0-(2,2-dichlorovinyl)phosphate, reference compound] | – | – | – | – | – | – | – | mortality at 20 ppm ([3]; 48 h): 0%; mortality at 100 ppm ([3]; 48 h): 60%; mortality at 200 ppm ([4]; 24 h): 33%
CCOc1ccc(C(C)(C)CCCc2ccc(F)c(Oc3ccc(F)cc3)c2)cc1 [Compound 55] | 100% | 100% | 100% | 100% | – | – | – | mortality at 1 mg/m2 ([2]; 48 h): 100%; mortality at 5 mg/m2 ([2]; 48 h): 100%; Mortality(%) 48 Hours After (yearling carps; 0.1 ppm in water): 0%; Mortality(%) 48 Hours After (yearling carps; 1 ppm in water): 0%
CCOc1ccc(C(C)(C)CCCc2cccc(Oc3ccc(F)cc3)n2)cc1 [Compound 40] | – | – | 60% | 100% | – | – | 70% | –
CC(C)(CCCc1cccc(Oc2ccccc2)c1)c1ccc(OC(F)(F)C(F)F)cc1 [Compound 65] | 100% | 100% | 100% | 100% | 30% | 95% | – | –
CC(C)(CCCc1cccc(Oc2ccccn2)c1)c1ccc(Cl)cc1 [Compound 43] | – | – | 75% | 100% | – | – | 60% | –
CCOP(=S)(OCC)Oc1ccc(=O)n(-c2ccccc2)n1 [(b), 0,0-diethyl-0-(3-oxo-2-phenyl-2H-pyridazin-6-yl)-phosphorothioate, reference compound] | – | – | – | – | 0% | 10% | – | mortality at 20 ppm ([1]; 48 h): 90%; mortality at 100 ppm ([1]; 48 h): 100%
CCOc1ccc(C2(CCCc3cccc(Oc4ccccc4)c3)CCC2)cc1 [Compound 31, 1-(3-Phenoxyphenyl)-3-[1-(4-ethoxyphenyl)cyclobutyl]propane] | – | – | 100% | 100% | 100% | 100% | – | –
CC(C)(CCCc1ccc(F)c(Oc2ccccc2)c1)c1ccc(Cl)cc1 [Compound 20] | 100% | 100% | 100% | 100% | 100% | 100% | 100% | Mortality(%) 48 Hours After (yearling carps; 0.1 ppm in water): 0%; Mortality(%) 48 Hours After (yearling carps; 1 ppm in water): 0%
CC(C)(CCCc1cccc(Oc2ccccc2)c1)c1ccc(OC(F)(F)CCl)cc1 [Compound 35] | 100% | 100% | – | – | – | – | 85% | mortality at 1 mg/m2 ([2]; 48 h): 70%; mortality at 5 mg/m2 ([2]; 48 h): 100%; Mortality(%) 48 Hours After (yearling carps; 0.1 ppm in water): 0%; Mortality(%) 48 Hours After (yearling carps; 1 ppm in water): 0%
Cc1ccc(C(C)(C)CCCc2ccc(F)c(Oc3ccccc3)c2)cc1 [Compound 29] | 100% | 100% | – | – | 100% | 100% | – | –
CC(C)(C)c1ccc(C(C)(C)CCCc2ccc(F)c(Oc3ccccc3)c2)cc1 [Compound 44] | 40% | 90% | – | – | – | – | 85% | –
CC(C)(CCCc1ccc(F)c(Oc2ccc(F)cc2)c1)c1ccc(Cl)cc1 [Compound 53] | – | – | 100% | 100% | 80% | 100% | 100% | –
COc1ccc(C(C)(C)CCCc2ccc(F)c(Oc3ccccc3)c2)cc1 [Compound 6, 1-(3-phenoxy-4-fluorophenyl)-4-(4-methoxyphenyl)-4-methylpentane] | 100% | 100% | 100% | 100% | 100% | 100% | – | Mortality(%) 48 Hours After (yearling carps; 0.1 ppm in water): 0%; Mortality(%) 48 Hours After (yearling carps; 1 ppm in water): 0%
Cc1ccc(C(C)(C)CCCc2cccc(Oc3ccccc3)c2)cc1 [Compound 1, 1-(3-phenoxyphenyl)-4-(4-methylphenyl)-4-methylpentane] | 100% | 100% | – | – | 80% | 100% | – | Mortality(%) 48 Hours After (yearling carps; 0.1 ppm in water): 0%; Mortality(%) 48 Hours After (yearling carps; 1 ppm in water): 0%
CC(C)c1ccc(C(C)(C)CCCc2ccc(F)c(Oc3ccccc3)c2)cc1 [Compound 56] | – | – | 100% | 100% | 40% | 100% | 100% | –
CC(C)(CCCc1cccc(Oc2ccccc2)c1)c1ccc(OCCF)cc1 [Compound 60] | 90% | 100% | 100% | 100% | – | – | 90% | –
CC(C)(CCCc1ccc(F)c(Oc2ccccc2)c1)c1ccc(OC(F)(F)C(F)F)cc1 [Compound 66] | 100% | 100% | 100% | 100% | 65% | 100% | 100% | –
OC(c1ccc(Cl)cc1)(c1ccc(Cl)cc1)C(Cl)(Cl)Cl [(e), Kelthane, reference compound] | – | – | – | – | – | – | – | mortality at 200 ppm ([4]; 24 h): 100%
COCc1ccc(C(C)(C)CCCc2cccc(Oc3ccccc3)c2)cc1 [Compound 61] | – | – | 100% | 100% | – | – | 93% | –
CC(C)Oc1ccc(C(C)(C)CCCc2cccc(Oc3ccccc3)c2)cc1 [Compound 9, 1-(3-phenoxyphenyl)-4-(4-isopropoxyphenyl)-4-methylpentane] | 100% | 100% | 100% | 100% | – | – | 100% | –
CC(C)(CCC(C#N)c1cccc(Oc2ccccc2)c1)c1ccc(Cl)cc1 (stereo not drawn) [Compound 54, 1-(3-Phenoxyphenyl)-1-cyano-4-(4-chlorophenyl)-4-methylpentane] | 45% | 90% | 50% | 90% | – | – | 100% | –
CC(C)(CCCc1ccc(F)c(Oc2ccccc2)c1)c1ccc(OC(F)F)cc1 [Compound 10, 1-(3-phenoxy-4-fluorophenyl)-4-(4-difluoromethoxyphenyl)-4-methylpentane] | 100% | 100% | 100% | 100% | 100% | 100% | – | Mortality(%) 48 Hours After (yearling carps; 0.1 ppm in water): 5%; Mortality(%) 48 Hours After (yearling carps; 1 ppm in water): 30%
CC(C)(CCCc1ccc(F)c(Oc2ccccc2)c1)c1ccccc1 [Compound 27] | 100% | 100% | 100% | 100% | – | – | – | mortality at 1 mg/m2 ([2]; 48 h): 100%; mortality at 5 mg/m2 ([2]; 48 h): 100%
CC(C)(CCCc1cccc(Oc2ccccc2)c1)c1ccc2c(c1)OCO2 [Compound 4, 1-(3-phenoxyphenyl)-4-(3,4-methylenedioxyphenyl)-4-methylpentane] | 100% | 100% | – | – | 40% | 100% | – | Mortality(%) 48 Hours After (yearling carps; 0.1 ppm in water): 0%; Mortality(%) 48 Hours After (yearling carps; 1 ppm in water): 0%
CCOc1ccc(C(C)(C)CCCc2cccc(Oc3ccccc3)n2)cc1 [Compound 19] | 70% | 100% | – | – | – | – | 43% | –
